Assay results published in US20190315806A1, “POLYMYXIN DERIVATIVE, PREPARATION METHOD AND APPLICATION THEREOF” (priority 2016, published 2019).
≈ marks a conversion by molar mass, not a printed value. Where a SMILES comes first, the peptide text is derived from it. Bridges are numbered along the chain shown (N, C = ends). [ ]: non-standard residue; d: D form. The star is where a group is joined. Heptanoyl(6-Me) = CC(C)CCCCC(=O)*; X2 = CC[C@H](C)CCCCC(=O)*; dDab = NCC[C@@H](N)C(=O)O; Dab = NCC[C@H](N)C(=O)O

Legend:
Format in all cases: cell-based
[1] = tested on: Acinetobacter baumannii ATCC 19606; conditions: ATCC 19606
Summary of the method: (§1)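 Read-out was the lowest drug level in agar preventing visible colony growth after 18 to 24 hours at 35° C. Plates held twofold dilutions (0.03–128 μg/mL final), prepared following CLSI. Bacteria were inoculated at 10^4 CFU/dot with a multipoint inoculator.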

[2] = tested on: Escherichia coli ATCC 25922; conditions: ATCC 25922
Summary of the method: as §1

[3] = tested on: Pseudomonas aeruginosa ATCC 27853; conditions: ATCC 27853
Summary of the method: as §1

[4] = tested on: Staphylococcus epidermidis ATCC 12228; conditions: ATCC 12228
Summary of the method: as §1

[5] = tested on: Klebsiella pneumoniae ATCC BAA-2146 (NDM-1); assay: Antibacterial activity, MIC by dish double dilution method; conditions: ATCC BAA-2146
Summary of the method: as §1

[6] = Nephrotoxicity test, renal cytotoxicity by MTT method; conditions: African green monkey
Summary of the method: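 Vero cells, adhered 24 h, exposed to a compound concentration gradient for 72 h at 37 °C, 5% CO2. Viability by MTT (0.5 mg/ml, 3 h), DMSO-solubilised, A570 nm, normalised to background and untreated control. IC50 from inhibition curve, mean of 3 wells per point.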

SMILES | MIC A. baumannii ATCC 19606 [1] | MIC E. coli ATCC 25922 [2] | MIC P. aeruginosa ATCC 27853 [3] | MIC S. epidermidis ATCC 12228 [4] | MIC K. pneumoniae ATCC BAA-2146 (NDM-1) [5] | IC50 at 72 h [6]
CC[C@H](C)CCCCC(=O)N[C@@H](CCN)C(=O)N[C@H](C(=O)N[C@H](CO)C(=O)N[C@H]1CCNC(=O)[C@H]([C@@H](C)O)NC(=O)[C@H](CCN)NC(=O)[C@H](CCN)NC(=O)[C@H]([C@@H](C)O)NC(=O)[C@@H](Cc2ccccc2)NC(=O)[C@H](CCN)NC1=O)[C@@H](C)O [Compound 115, (S)-6-methyloctanoyl-Dab-Thr-D-Ser-ring(4-10)[Dab-Dab-D-Phe-Thr-Dab-Dab-Thr]] (X2-[Dab]T[dS][Dab][Dab][dF]T[Dab][Dab]T; lactam 4-C) | 0.12 µg/mL (≈ 0.102 µM) | 0.25 µg/mL (≈ 0.212 µM) | 2 µg/mL (≈ 1.7 µM) | >128 µg/mL | 0.5 µg/mL (≈ 0.424 µM) | 160 ± 23.4 µg/mL (≈ 136 µM)
CC(C)CCCCC(=O)N[C@@H](CCN)C(=O)N[C@H](C(=O)N[C@H](CO)C(=O)N[C@H]1CCNC(=O)[C@H]([C@@H](C)O)NC(=O)[C@H](CCN)NC(=O)[C@H](CCN)NC(=O)[C@H]([C@@H](C)O)NC(=O)[C@@H](Cc2ccccc2)NC(=O)[C@H](CCN)NC1=O)[C@@H](C)O [Compound 116, 6-methylheptanoyl-Dab-Thr-D-Ser-ring(4-10)[Dab-Dab-D-Phe-Thr-Dab-Dab-Thr]] ({Heptanoyl(6-Me)}-[Dab]T[dS][Dab][Dab][dF]T[Dab][Dab]T; lactam 4-C) | 0.25 µg/mL (≈ 0.215 µM) | 0.25 µg/mL (≈ 0.215 µM) | 2 µg/mL (≈ 1.72 µM) | >128 µg/mL | 1 µg/mL (≈ 0.859 µM) | > 500 µg/mL
CC[C@H](C)CCCCC(=O)N[C@@H](CCN)C(=O)N[C@H](C(=O)N[C@@H](CCN)C(=O)N[C@H]1CCNC(=O)[C@H](CC(C)C)NC(=O)[C@H](CCN)NC(=O)[C@H](CCN)NC(=O)[C@H](CC(C)C)NC(=O)[C@@H](Cc2ccccc2)NC(=O)[C@H](CCN)NC1=O)[C@@H](C)O [Compound 127, (S)-6-methyloctanoyl-Dab-Thr-Dab-ring(4-10)[Dab-Dab-D-Phe-Lue-Dab-Dab-Lue]] (X2-[Dab]T[Dab][Dab][Dab][dF]L[Dab][Dab]L; lactam 4-C) | 2 µg/mL (≈ 1.65 µM) | 4 µg/mL (≈ 3.29 µM) | 4 µg/mL (≈ 3.29 µM) | 8 µg/mL (≈ 6.58 µM) | 4 µg/mL (≈ 3.29 µM) | 17.2 ± 2.16 µg/mL (≈ 14.1 µM)
CC(C)CCCCC(=O)N[C@@H](CCN)C(=O)N[C@H](C(=O)N[C@@H](CCN)C(=O)N[C@H]1CCNC(=O)[C@H](CC(C)C)NC(=O)[C@H](CCN)NC(=O)[C@H](CCN)NC(=O)[C@H](CC(C)C)NC(=O)[C@@H](Cc2ccccc2)NC(=O)[C@H](CCN)NC1=O)[C@@H](C)O [Compound 128, 6-methylheptanoyl-Dab-Thr-Dab-ring(4-10)[Dab-Dab-D-Phe-Lue-Dab-Dab-Lue]] ({Heptanoyl(6-Me)}-[Dab]T[Dab][Dab][Dab][dF]L[Dab][Dab]L; lactam 4-C) | 4 µg/mL (≈ 3.33 µM) | 4 µg/mL (≈ 3.33 µM) | 4 µg/mL (≈ 3.33 µM) | 16 µg/mL (≈ 13.3 µM) | 4 µg/mL (≈ 3.33 µM) | 30.1 ± 2.59 µg/mL (≈ 25 µM)
CC[C@H](C)CCCCC(=O)N[C@@H](CCN)C(=O)N[C@H](C(=O)N[C@H](CCN)C(=O)N[C@H]1CCNC(=O)[C@H]([C@@H](C)O)NC(=O)[C@H](CCN)NC(=O)[C@H](CCN)NC(=O)[C@H]([C@@H](C)O)NC(=O)[C@@H](Cc2ccccc2)NC(=O)[C@H](CCN)NC1=O)[C@@H](C)O [Compound 143, (S)-6-methyloctanoyl-Dab-Thr-D-Dab-ring(4-10)[Dab-Dab-D-Phe-Thr-Dab-Dab-Thr]] (X2-[Dab]T[dDab][Dab][Dab][dF]T[Dab][Dab]T; lactam 4-C) | 1 µg/mL (≈ 0.839 µM) | 0.5 µg/mL (≈ 0.42 µM) | 1 µg/mL (≈ 0.839 µM) | >128 µg/mL | 1 µg/mL (≈ 0.839 µM) | 142 ± 15.2 µg/mL (≈ 119 µM)
